For test [1], the system named is 661W or C6 cells. Nature of the test: MTT assay (protection against calcium-ionophore A23187). In kind it is cell-based. As to conditions: for percent protection against ionophore-induced loss of MTT signal at 0.0008 µM: 800 pM compound; for percent protection against ionophore-induced loss of MTT signal at 0.001 µM: 1 nM compound; for percent protection against ionophore-induced loss of MTT signal at 0.01 µM: 10 nM compound. The protocol: The compound 3-(4,5-Dimethylthiazol-2-yl)-2,5-diphenyltetrazolium bromide (MTT) is a tetrazolium ion that is reduced to a blue formazan dye via several families of NAD(P)H-dependent oxidoreductases. Formation of the formazan dye from MTT or other related tetrazolium dyes are commonly used as a viability assay even though, in fact, the assay is a metabolic capacity assay.
In this assay, 661W or C6 cells were maintained in DMEM supplemented with 10% FBS. 100 μL of 70,000 cells/mL cells were seeded into each well of 96 well plates using DMEM supplemented with 5% FBS. Cells were then allowed to grow to confluency for 48 hours. The compounds of the invention were added in 2 μL media and calcium-ionophore A23187 was then added in 1 μL for a final concentration of 1 μM and after 24 h, 20 uL of 2 μg/mL MTT were added to each well and the cells were incubated for another 4 h after which 100 μL of 1% SDS in 0.01 M aqueous HCl were added to each well and the plates were incubated overnight. Absorbance was measured at […] (background correction). The 1 μM ionophore A23187 caused about 50% loss in MTT signal at 24 h. Protection was calculated as the increase in absorbance of treatment groups normalized to the vehicle control.
(In general: Tetrazolium assays rely on reduction of a dye to a coloured formazan, in cell work by metabolically active cells.)

The test system of test [2] is 661W or C6 cells. Nature of the test: XF FCCP-uncoupled oxygen consumption rate assay (IBMX challenge). In kind it is cell-based. Particulars: 24 h; for activity at 0.1 µM: 100 nM compound; for activity at 0.01 µM: 10 nM compound. As to the method: XF FCCP-Uncoupled Oxygen Consumption Rate Assay
The XF FCCP-uncoupled oxygen consumption rate assay assesses mitochondrial capacity by measuring cellular respiration. It was shown that the maximum FCCP-uncoupled oxygen consumption rate (OCR) was a good estimate of maximal mitochondrial capacity (Beeson 2010) and that IBMX treatment of 661W or C6 cells for 24 h caused a loss in maximal uncoupled OCR (Perron 2013). Thus, cells were pretreated with the exemplified compounds for 1 h, added 600 μM IBMX and then measured the uncoupled rate after 24 h. The OCR measurements were performed using a Seahorse Bioscience XF instrument (Seahorse Bioscience, Billerica, Md.), as previously published (Perron 2013). O2 leakage through the plastic sides and bottom of the plate was accounted for using the AKOS algorithm in the XF software package. Cells were plated on 96- or 24-well custom plates designed for use in the XF and grown to confluency in DMEM+5% FBS (48 h). The medium was then replaced with DMEM+1% FBS for 24 h, along with any treatments.

The subject of test [3] is rd1 mouse retinal explants (photoreceptors). Nature of the test: Retinal degeneration assay (rd1 mouse retina organ cultures). The class given is cell-based. As to conditions: explants cultured 11 days, rows of photoreceptors in ONL. An excerpt: Retinal Degeneration Assay
It was reasoned that the compounds' activities would enable them to protect against loss of photoreceptors in retinal degenerative animal models. As a translational bridge between the cell line-based assays and in vivo animal studies, mouse retina organ cultures were utilized. These retinal explants were a powerful ex vivo screening tool, which allowed the testing of photoreceptor cell survival within the retinal network, and the effects of a specific compound were tested like in an in vitro system, without systemic interference. In this assay, the rd1 mouse was utilized. The genotype of the rd1 mouse has a mutation in the β-subunit of the phosphodiesterase gene. […] The genetic deficit and the retinal pathology were very similar to that observed in the patients with βPDE-dependent RP. In these mice, rod photoreceptor degeneration started after postnatal day 10 (P10), progressing rapidly, such that at P21, only 1-2 rows of photoreceptor remained, mainly representing cones. Finally, the rd1 mouse retina was amenable to culturing, replicating both retinal development and degeneration, following the same time course as in vivo. […] At the end of the experiments, tissues were fixed, sectioned and stained with 0.1% toluidine and the numbers of rows of photoreceptors remaining in the outer nuclear layer (ONL) were counted.

The test system of test [4] is Balb/c mice photoreceptors. Nature of the test: Light model assay (constant light damage, eyedrops). In kind it is in vivo, mouse. As to conditions: 125 μM eyedrops once per day; continuous light 7 days; assessed 10 days after onset. An excerpt:
The light model assay is generally accepted as a model of age related macular degeneration (AMD). […] In particular, oxidative damage has been detected by immunohistochemistry, detecting the presence of oxidized and tyrosine-phosphorylated proteins as well as the upregulation of endogenous antioxidants such as thioredoxin and glutathione peroxidase. […] Additional indirect evidence for the involvement of oxidative stress in photoreceptor degeneration has been provided by treatment of photodamaged retinas with antioxidants such as dimethylthiourea, or the treatment of N-methyl-N-nitrosourea (MNU)-challenged rats with the antioxidant DHA.
The light model assay was used to further test the therapeutic potential of the compounds of the invention. Photoreceptors from albino animals are very sensitive to constant light, lacking the RPE pigment to protect them. Thus, Balb/c mice were exposed to continuous light for 7 days, which caused loss of about 50% of the photoreceptor cells as measured via histology. To test the potential therapeutic efficacy, eyedrops were formulated in 0.1% Bij 35 in […], applied once or twice daily throughout the period of light exposure, and assessed their effect on the light-induced degeneration of photoreceptor cells morphologically and electrophysiologically, 10 days after the onset of the CL exposure.

[5] abbreviates: 1 μM A23187, 24 h, read-out: MTT Protection(%, concentration).
The mark [6] stands for this setting: 1 h pretreatment, 600 μM IBMX, read-out: XF FCCP OCR (% Ctrl, concentration).

Regarding `CCOC(=O)c1cc(-c2ccccn2)nn1CC(=O)c1ccc(OC)cc1OC` [Example 1, Ethyl 1-(2-(2,4-dimethoxyphenyl)-2-oxoethyl)-3-(pyridin-2-yl)-1H-pyrazole-5-carboxylate], the percent protection against ionophore-induced loss of MTT signal at 0.0008 µM in the test on 661W or C6 cells [1] (setting [5]) worked out at 10.4%. Moreover, the activity at 1 µM with 661W or C6 cells [2] (1 uM compound, 1 h pretreatment, 600 μM IBMX, read-out: XF FCCP OCR (% Ctrl, concentration)) came to 58%.
In the case of `CCOC(=O)c1cc(-c2ccccn2)n(CC(=O)c2ccc(OC)cc2OC)n1` [Example 2, Ethyl 1-(2-(2,4-dimethoxyphenyl)-2-oxoethyl)-5-(pyridin-2-yl)-1H-pyrazole-3-carboxylate], the percent protection against ionophore-induced loss of MTT signal at 0.0008 µM in the test with 661W or C6 cells [1] (setting [5]) came to 73.9%. Moreover, in the test on 661W or C6 cells [2] (setting [6]), the activity at 0.1 µM stood at 62%. Further, in test [3] (20 nM), the “rd1 protection (concentration, # of rows)” value is recorded as 20 nM 4.46 # of rows.
Consider `CCOC(=O)c1cc(-c2cccnc2)nn1CC(=O)c1cc(OC)ccc1OC` [Example 3, Ethyl 1-(2-(2,5-dimethoxyphenyl)-2-oxoethyl)-3-(pyridin-3-yl)-1H-pyrazole-5-carboxylate], for which the percent protection against ionophore-induced loss of MTT signal at 0.001 µM in the test with 661W or C6 cells [1] (setting [5]) amounted to 43.5%.
For `CCOC(=O)c1cc([Si](C)(C)C)nn1CC(=O)c1ccc(OC)cc1OC` [Example 4, Ethyl 1-(2-(2,4-dimethoxyphenyl)-2-oxoethyl)-3-(trimethylsilyl)-1H-pyrazole-5-carboxylate], the percent protection against ionophore-induced loss of MTT signal at 0.01 µM in the test on 661W or C6 cells [1] (setting [5]) turned out to be 87%. Also, the activity at 0.01 µM in the test with 661W or C6 cells [2] (setting [6]) worked out at 67%. Also, the “rd1 protection (concentration, # of rows)” value in test [3] (10 nM) was 10 nM 3.2 # of rows. The “LD Protection (concentration, # of rows)” value in test [4] was 125 μM 6.42 # of rows.
Take `CCOC(=O)c1cc([Si](C)(C)C)nn1CC(=O)c1cc(OC)ccc1OC` [Example 5, Ethyl 1-(2-(2,5-dimethoxyphenyl)-2-oxoethyl)-3-(trimethylsilyl)-1H-pyrazole-5-carboxylate]: in the test on 661W or C6 cells [1] (setting [5]), the percent protection against ionophore-induced loss of MTT signal at 0.01 µM was 76.6%. Moreover, the activity at 0.01 µM in the test with 661W or C6 cells [2] (setting [6]) was 72%.
For `CCOC(=O)c1cc(-c2ccccn2)nn1Cc1cccnc1` [Example 6, Ethyl 3-(pyridin-2-yl)-1-(pyridin-3-ylmethyl)-1H-pyrazole-5-carboxylate] the same measures were 73.5% and 75%.
`CCOC(=O)c1cc([Si](C)(C)C)nn1Cc1cc(OC)c(OC)c(OC)c1` [Example 7, Ethyl 1-(3,4,5-trimethoxybenzyl)-3-(trimethylsilyl)-1H-pyrazole-5-carboxylate]: the percent protection against ionophore-induced loss of MTT signal at 0.01 µM in the test on 661W or C6 cells [1] (setting [5]) is 40%.
For the compound `CCOC(=O)c1cc(-c2cccnc2)nn1CC(=O)c1ccc(OC)cc1OC` [Example 8, Ethyl 1-(2-(2,4-dimethoxyphenyl)-2-oxoethyl)-3-(pyridin-3-yl)-1H-pyrazole-5-carboxylate], the percent protection against ionophore-induced loss of MTT signal at 0.001 µM with 661W or C6 cells [1] (setting [5]) was found to be 75.6%. In addition, the activity at 0.1 µM in the test with 661W or C6 cells [2] (setting [6]) is 64%.
For `CCOC(=O)c1cc([Si](C)(C)C)n(CC(=O)c2cccnc2)n1` [Example 9, Ethyl 1-(2-oxo-2-(pyridin-3-yl)ethyl)-5-(trimethylsilyl)-1H-pyrazole-3-carboxylate], in that order: 59% and 67%.
Turning to `CCOC(=O)c1cc([Si](C)(C)C)nn1CC(=O)c1cccnc1` [Example 10, Ethyl 1-(2-oxo-2-(pyridin-3-yl)ethyl)-3-(trimethylsilyl)-1H-pyrazole-5-carboxylate], the percent protection against ionophore-induced loss of MTT signal at 0.001 µM in the test with 661W or C6 cells [1] (setting [5]) is 47.8%.
On to `CCOC(=O)c1cc(-c2ccccn2)nn1CC(=O)c1cc(OC)ccc1OC` [Example 11, Ethyl 1-(2-(2,5-dimethoxyphenyl)-2-oxoethyl)-3-(pyridin-2-yl)-1H-pyrazole-5-carboxylate], for which the percent protection against ionophore-induced loss of MTT signal at 1 µM with 661W or C6 cells [1] (1 μM compound, 1 μM A23187, 24 h, read-out: MTT Protection(%, concentration)) came out at 28.3%.
`CCOC(=O)c1cc(C(C)C)nn1Cc1c[nH]c2ccccc12` [Example 12, Ethyl 1-((1H-indol-3-yl)methyl)-3-isopropyl-1H-pyrazole-5-carboxylate]: the percent protection against ionophore-induced loss of MTT signal at 0.001 µM in the test with 661W or C6 cells [1] (setting [5]) was 59.4%.
Consider `CNc1ccc2oc(C[C@H]3O[C@@]4(CC[C@H]3C)O[C@H]([C@H](C)C(=O)c3ccc[nH]3)[C@H](C)C[C@H]4C)nc2c1C(=O)O` [Example A23187, reference compound], for which the “loss in MTT signal” value in the test on 661W or C6 cells [1] (1 μM ionophore alone, 24 h) is reported as “about 50%”.
Take `CC(C)Cn1c(=O)n(C)c(=O)c2[nH]cnc21` [IBMX, reference compound]: in the test with 661W or C6 cells [2] (IBMX treatment alone, 600 μM), the “decrease in the uncoupled rate (OCR)” value was approximately 50%.

The values above are taken from patent publication US9556207B2, “Pyrazole compounds, compositions and methods for treatment of degenerative diseases and disorders” (MUSC FOUNDATION FOR RESEARCH DEVELOPMENT, priority 2013, dated 2017).
